Test results: article PMC7765794 (Nutrients, 2020)

What was measured:
human ODC = target: T1, human ODC (Homo sapiens, UniProt P11926); test: ODC enzyme activity assay and inhibition study (CO2-L3K coupled spectrophotometric assay); assay type: biochemical; details: for IC50: purified human ODC, 37 °C, 10 mM ornithine, 0.2 mM PLP, n = 3, read-out: IC50 to ornithine decarboxylase (ODC);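 as to all read-outs here: His-tagged human ODC expressed in Escherichia coli, activity followed as decarboxylation coupled via PEP carboxylation and malate formation to NADH analog oxidation, absorbance drop at 405 nm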
T1 construct: His-tag (N); made in house; host or cells: Escherichia coli JM109
T1 sequence (P11926 1-461): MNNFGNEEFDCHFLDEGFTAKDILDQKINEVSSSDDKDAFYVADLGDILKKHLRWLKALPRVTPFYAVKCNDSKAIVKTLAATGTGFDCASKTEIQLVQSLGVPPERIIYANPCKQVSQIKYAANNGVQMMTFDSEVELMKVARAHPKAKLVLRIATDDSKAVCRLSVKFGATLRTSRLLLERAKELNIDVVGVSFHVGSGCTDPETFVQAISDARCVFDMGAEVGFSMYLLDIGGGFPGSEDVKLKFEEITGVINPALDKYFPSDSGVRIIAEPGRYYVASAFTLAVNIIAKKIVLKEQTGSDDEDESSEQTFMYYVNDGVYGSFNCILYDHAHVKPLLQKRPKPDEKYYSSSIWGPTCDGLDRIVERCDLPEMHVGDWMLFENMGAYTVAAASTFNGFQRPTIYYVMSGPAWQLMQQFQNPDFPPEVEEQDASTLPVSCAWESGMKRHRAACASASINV

ODC-empty HL-60 cells = test: Cell growth and apoptosis in HL-60 cells with ODC-empty vector; assay type: cell-based, human; details: 50 μM baicalein or 75 µM myricetin; for cell growth of ODC-empty HL-60 cells (in words): 24 h
Description: (§1) Cells (2 × 10^6/mL) were seeded into 60-mm Petri dishes and incubated at 37 °C. The cells were harvested by treatment with 5 µM rottlerin. Viable cells were counted using the trypan blue exclusion method. The cell suspension was mixed on a slide with an equal volume of acridine orange solution (10 mg/mL). Green fluorescence was detected between 500 and 525 nm with a fluorescence microscope (Zeiss, Oberkochen, Germany). The ODC-empty vector (pcDNA3-ODC-empty) and ODC-overexpressing vector (pcDNA3-ODC-WT) were transfected into parental HL-60 cells according to calcium phosphate-mediated transfection. Stably transfected cells were selected with the antibiotic G418 (400 μg/mL). After three weeks, the isolated G418-resistant clones were individually selected to analyze the protein expression of ODC in the cells. Cells were harvested and lysed overnight in digestion buffer (0.5% sarkosyl, 0.5 mg/mL proteinase K, 50 mM Tris-HCl, pH 8.0 and 10 mM ethylenediamine tetraacetic acid (EDTA) at 55 °C). Subsequently, cells were treated with 0.5 μg/mL RNase A for 2 h. Genomic DNA was extracted by phenol/chloroform/isoamyl alcohol extraction and analyzed by gel electrophoresis using 2% agarose.

ODC-WT HL-60 cells = test: Cell growth and apoptosis in ODC-overexpressing HL-60 cells; assay type: cell-based, human; details: for apoptosis in ODC-WT HL-60 cells (in words): 50 μM baicalein or 75 µM myricetin
Description: as §1, with “The cells were harvested by treatment with 5 µM rottlerin.” left out

HL-60 cells = test: Cell viability (trypan blue), acridine orange staining and DNA fragmentation in HL-60 cells; assay type: cell-based, human; details: for apoptosis in HL-60 cells (apoptotic bodies, DNA fragmentation): 50 μM baicalein or up to 75 µM myricetin, 24 h; for IC50: Homo sapiens, HL-60, after 24 h, viable cell count
Description: The human promyelocytic leukemia HL-60 and human acute Jurkat T cell leukemia cell lines were grown in 90% RPMI 1640 medium supplemented with 10% fetal bovine serum (FBS) at a temperature of 37 °C under a humidified 5% CO2 atmosphere. These cell lines were approved by short tandem repeat profiling, and the cells were passaged for no more than 2 months. Cells (2 × 10^6/mL) were seeded into 60-mm Petri dishes and incubated at 37 °C. The cells were harvested by treatment with 5 µM rottlerin. Viable cells were counted using the trypan blue exclusion method. The cell suspension was mixed on a slide with an equal volume of acridine orange solution (10 mg/mL). Green fluorescence was detected between 500 and 525 nm with a fluorescence microscope (Zeiss, Oberkochen, Germany). Cells were harvested and lysed overnight in digestion buffer (0.5% sarkosyl, 0.5 mg/mL proteinase K, 50 mM Tris-HCl, pH 8.0 and 10 mM ethylenediamine tetraacetic acid (EDTA) at 55 °C). Subsequently, cells were treated with 0.5 μg/mL RNase A for 2 h. Genomic DNA was extracted by phenol/chloroform/isoamyl alcohol extraction and analyzed by gel electrophoresis using 2% agarose.

Jurkat cells = test: Cell growth and apoptosis in Jurkat cells; assay type: cell-based, human; details: for growth of Jurkat cells (in words): 100 µM baicalein or 75 µM myricetin (Figure S5); for apoptosis of Jurkat cells (in words): 100 µM baicalein or myricetin (Figure S5)
Description: The human promyelocytic leukemia HL-60 and human acute Jurkat T cell leukemia cell lines were grown in 90% RPMI 1640 medium supplemented with 10% fetal bovine serum (FBS) at a temperature of 37 °C under a humidified 5% CO2 atmosphere. These cell lines were approved by short tandem repeat profiling, and the cells were passaged for no more than 2 months.
Cells (2 × 10^6/mL) were seeded into 60-mm Petri dishes and incubated at 37 °C. The cells were harvested by treatment with 5 µM rottlerin. Viable cells were counted using the trypan blue exclusion method. The cell suspension was mixed on a slide with an equal volume of acridine orange solution (10 mg/mL). Green fluorescence was detected between 500 and 525 nm with a fluorescence microscope (Zeiss, Oberkochen, Germany).
Cells were harvested and lysed overnight in digestion buffer (0.5% sarkosyl, 0.5 mg/mL proteinase K, 50 mM Tris-HCl, pH 8.0 and 10 mM ethylenediamine tetraacetic acid (EDTA) at 55 °C). Subsequently, cells were treated with 0.5 μg/mL RNase A for 2 h. Genomic DNA was extracted by phenol/chloroform/isoamyl alcohol extraction and analyzed by gel electrophoresis using 2% agarose.
(C) and (D) Apoptotic bodies […]
(1 picture or pasted object on this page, not shown here)

| Compound | IC50 (human ODC) [µM] | Ki (human ODC; with respect to substrate L-ornithine, noncompetitive fit, read-out: Ki(ornithine) against ODC) [µM] | apoptosis in ODC-empty HL-60 cells (in words) (ODC-empty HL-60 cells) | cell growth of ODC-empty HL-60 cells (in words) (ODC-empty HL-60 cells) | apoptosis in ODC-WT HL-60 cells (in words) (ODC-WT HL-60 cells) | cell growth of ODC-WT HL-60 cells (in words) (ODC-WT HL-60 cells; 50 μM baicalein, 24 h) | apoptosis in HL-60 cells (apoptotic bodies, DNA fragmentation) (HL-60 cells) | IC50 (HL-60 cells) [µM] | cell death / growth suppression in HL-60 cells (in words) (HL-60 cells; baicalein 0–70 μM) | growth of Jurkat cells (in words) (Jurkat cells) | apoptosis of Jurkat cells (in words) (Jurkat cells) |
| --- | --- | --- | --- | --- | --- | --- | --- | --- | --- | --- | --- |
| O=c1cc(-c2ccccc2)oc2cc(O)c(O)c(O)c12 [Baicalein, 5,6,7-trihydroxyflavone] | 0.88 | 0.64 ± 0.18 | appearance of apoptotic bodies and DNA fragmentation | growth arrest | normal cell morphology and slight DNA fragmentation | growth arrest | exhibited apoptosis | ~50 | cell death was dose-dependent | suppressed the growth of Jurkat cells | induced cellular apoptosis with DNA fragmentation |
| O=c1c(O)c(-c2cc(O)c(O)c(O)c2)oc2cc(O)cc(O)c12 [Myricetin] | 7.3 |  | induced apoptotic bodies in ODC-empty cells | more effective than in ODC-WT HL-60 cells | but not in ODC-WT HL-60 cells |  | induced apoptosis | ~75 |  | suppressed the growth of Jurkat cells | induced cellular apoptosis with DNA fragmentation |
